Data from patent US7186862B2, “Microbicidal agents on the basis of biphenylbenzamide derivatives” (Bayer CropScience AG, priority 2002, dated 2007).

Columns and labels:
[1] = logP determination by HPLC on reversed-phase column (EEC Directive 79/831); format: physicochemical; details: 0.1% aqueous phosphoric acid/acetonitrile gradient; for chromatographic logP: reversed-phase HPLC column (C18), pH 2.3, reversed-phase C18, 43° C.; for logP (pH 2.3): reversed-phase C18, 43° C.
Experimental: The logP values given in the tables and preparation examples above are determined in accordance with EEC Directive 79/831 Annex V.48 by HPLC (High Performance Liquid Chromatography) on a reversed-phase column (C18). Temperature: 43° C. The determination is carried out in the acidic range at pH 2.3 using the mobile phases 0.1% aqueous phosphoric acid and acetonitrile; linear gradient from 10% acetonitrile to 90% acetonitrile. Calibration is carried out using unbranched […] (of 3 to 16 carbon atoms) with known logP values (determination of the logP values by the retention time using linear interpolation between two successive alkanones).

Podosphaera leucotricha = assay: Podosphaera test (apple)/protective; format: in vivo; details: 240 h, application rate 100 g/ha, apple plants, protective spray, evaluation 10 days after inoculation, 100% = no infection, read-out: Efficacy in %
Experimental: (§1) [table] To produce a suitable preparation of active compound, 1 part by weight of active compound is mixed with the stated amounts of solvent and emulsifier, and the concentrate is diluted with water to the desired concentration. To test for protective activity, young plants are sprayed with the preparation of active compound at the stated application rate. After the spray coating has dried on, the plants are inoculated with an aqueous spore suspension of the apple mildew pathogen Podosphaera leucotricha. The plants are then placed in a greenhouse at about 23° C. and a relative atmospheric humidity of about 70%. Evaluation is carried out 10 days after the inoculation. 0% means an efficacy which corresponds to that of the control, whereas an efficacy of 100% means that no infection is observed.

Sphaerotheca fuliginea = assay: Sphaerotheca test (cucumber)/protective; format: in vivo; details: Podosphaera fuliginea, 168 h; application rate 100 g/ha; cucumber plants, protective spray; evaluation 7 days after inoculation; 100% = no infection; read-out: Efficacy in %
Experimental: as §1, with “of Sphaerotheca fuliginea.” for “of the apple mildew pathogen Podosphaera leucotricha.”, “out 7” for “out 10”

Venturia inaequalis = assay: Venturia test (apple)/protective; format: in vivo; details: 240 h, application rate 100 g/ha, apple plants, protective spray, evaluation 10 days after inoculation, 100% = no infection, read-out: Efficacy in %
Experimental: as §1, with “conidia” for “spore”, “scab” for “mildew”, “Venturia inaequalis and then remain in an incubation cabin at about 20° C. and 100% relative atmospheric humidity for 1 day.” for “Podosphaera leucotricha.”, “21°” for “23°”, “90%.” for “70%.”

Alternaria solani = assay: Alternaria test (tomato)/protective; format: in vivo; details: application rate 750 g/ha; tomato plants, protective spray, inoculation 1 day after treatment; evaluation 7 days after inoculation; 100% = no infection
Experimental: [table] To produce a suitable p reparation of active compound, 1 part by weight of active compound is mixed with the stated amounts of solvent and emulsifier, and the concentrate is diluted with water to the desired concentration. To test for protective activity, young tomato plants are sprayed with the preparation of active compound at the stated application rate. 1 day after the treatment, the plants are inoculated with a spore suspension of Alternaria solani and are then kept at 100% relative atmospheric humidity and 20° C. for 24 h. The plants are then kept at 96% relative atmospheric humidity and a temperature of 20° C. Evaluation is carried out 7 days after the inoculation. 0% means an efficacy which corresponds to that of the control, whereas an efficacy of 100% means that no infection is observed.

## O=C(Nc1ccccc1-c1ccc(Cl)cc1)c1ccccc1C(F)(F)F [Compound 1]
[1]
  chromatographic logP: 3.73
Podosphaera leucotricha
  pest or weed control at 100 g/ha: 100%
Sphaerotheca fuliginea
  pest or weed control at 100 g/ha: 94%
Venturia inaequalis
  pest or weed control at 100 g/ha: 97%

## O=C(Nc1ccccc1-c1ccc(Cl)cc1Cl)c1ccccc1C(F)(F)F [Compound 2]
[1]
  chromatographic logP: 4
Podosphaera leucotricha
  pest or weed control at 100 g/ha: 100%
Sphaerotheca fuliginea
  pest or weed control at 100 g/ha: 94%

## Cc1cc(Cl)ccc1-c1ccccc1NC(=O)c1ccccc1C(F)(F)F [Compound 3]
[1]
  chromatographic logP: 4.14
Podosphaera leucotricha
  pest or weed control at 100 g/ha: 99%
Sphaerotheca fuliginea
  pest or weed control at 100 g/ha: 100%
Venturia inaequalis
  pest or weed control at 100 g/ha: 100%

## O=C(Nc1ccccc1-c1ccc(Br)cc1)c1ccccc1C(F)(F)F [Compound 5]
[1]
  chromatographic logP: 4.03
Alternaria solani
  Efficacy in %: 94%

## O=C(Nc1ccccc1-c1ccc(C(F)(F)F)cc1)c1ccccc1C(F)(F)F [Compound 6]
[1]
  logP (pH 2.3): 4.05

## O=C(Nc1ccccc1-c1ccc(OC(F)(F)F)cc1)c1ccccc1C(F)(F)F [Compound 8]
[1]
  logP (pH 2.3): 4.20

## CSc1ccc(-c2ccccc2NC(=O)c2ccccc2C(F)(F)F)cc1 [Compound 9]
[1]
  logP (pH 2.3): 3.89

## O=C(Nc1ccccc1-c1ccc(Br)cc1)c1ccccc1Cl [Compound 10]
[1]
  chromatographic logP: 3.89
Alternaria solani
  Efficacy in %: 92%

## O=C(Nc1ccccc1-c1ccc(C(F)(F)F)cc1)c1ccccc1Cl [Compound 11]
[1]
  logP (pH 2.3): 3.89

## O=C(Nc1ccccc1-c1cccc(Cl)c1)c1ccccc1Cl [Compound 12]
[1]
  chromatographic logP: 3.75
Podosphaera leucotricha
  pest or weed control at 100 g/ha: 100%
Venturia inaequalis
  pest or weed control at 100 g/ha: 100%

## O=C(Nc1ccccc1-c1ccc(OC(F)(F)F)cc1)c1ccccc1Cl [Compound 13]
[1]
  logP (pH 2.3): 4.08

## CSc1ccc(-c2ccccc2NC(=O)c2ccccc2Cl)cc1 [Compound 14]
[1]
  logP (pH 2.3): 3.75

## O=C(Nc1ccccc1-c1ccc(F)cc1)c1ccccc1Cl [Compound 15]
[1]
  logP (pH 2.3): 3.40

## O=C(Nc1ccccc1-c1ccc(Br)cc1)c1ccccc1Br [Compound 16]
[1]
  logP (pH 2.3): 3.91

## O=C(Nc1ccccc1-c1ccc(C(F)(F)F)cc1)c1ccccc1Br [Compound 17]
[1]
  logP (pH 2.3): 3.94

## O=C(Nc1ccccc1-c1cccc(Cl)c1)c1ccccc1Br [Compound 18]
[1]
  chromatographic logP: 3.78
Alternaria solani
  Efficacy in %: 100%

## O=C(Nc1ccccc1-c1ccc(OC(F)(F)F)cc1)c1ccccc1Br [Compound 19]
[1]
  logP (pH 2.3): 4.08

## CSc1ccc(-c2ccccc2NC(=O)c2ccccc2Br)cc1 [Compound 20]
[1]
  logP (pH 2.3): 3.78

## O=C(Nc1ccccc1-c1ccc(F)cc1)c1ccccc1Br [Compound 21]
[1]
  logP (pH 2.3): 3.42

## Cc1ccccc1C(=O)Nc1ccccc1-c1ccc(Br)cc1 [Compound 22]
[1]
  logP (pH 2.3): 3.86

## Cc1ccccc1C(=O)Nc1ccccc1-c1ccc(C(F)(F)F)cc1 [Compound 23]
[1]
  logP (pH 2.3): 3.86

## Cc1ccccc1C(=O)Nc1ccccc1-c1cccc(Cl)c1 [Compound 24]
[1]
  logP (pH 2.3): 3.72

## Cc1ccccc1C(=O)Nc1ccccc1-c1ccc(OC(F)(F)F)cc1 [Compound 25]
[1]
  logP (pH 2.3): 4.03

## CSc1ccc(-c2ccccc2NC(=O)c2ccccc2C)cc1 [Compound 26]
[1]
  logP (pH 2.3): 3.72

## O=C(Nc1ccccc1-c1ccc(Br)cc1)c1ccccc1I [Compound 27]
[1]
  logP (pH 2.3): 4.00

## O=C(Nc1ccccc1-c1ccc(C(F)(F)F)cc1)c1ccccc1I [Compound 28]
[1]
  logP (pH 2.3): 4.03

## O=C(Nc1ccccc1-c1cccc(Cl)c1)c1ccccc1I [Compound 29]
[1]
  logP (pH 2.3): 3.86

## O=C(Nc1ccccc1-c1ccc(OC(F)(F)F)cc1)c1ccccc1I [Compound 30]
[1]
  logP (pH 2.3): 4.21

## CSc1ccc(-c2ccccc2NC(=O)c2ccccc2I)cc1 [Compound 31]
[1]
  logP (pH 2.3): 3.86

## O=C(Nc1ccccc1-c1ccc(F)cc1)c1ccccc1I [Compound 32]
[1]
  logP (pH 2.3): 3.55

## O=C(Nc1ccccc1-c1ccc(F)c(F)c1)c1ccccc1C(F)(F)F [Compound 33]
[1]
  chromatographic logP: 3.55
Podosphaera leucotricha
  pest or weed control at 100 g/ha: 100%
Sphaerotheca fuliginea
  pest or weed control at 100 g/ha: 82%
Venturia inaequalis
  pest or weed control at 100 g/ha: 100%
Alternaria solani
  Efficacy in %: 94%

## O=C(Nc1ccccc1-c1ccc(Cl)c(F)c1)c1ccccc1C(F)(F)F [Compound 34]
[1]
  chromatographic logP: 3.76
Podosphaera leucotricha
  pest or weed control at 100 g/ha: 100%
Sphaerotheca fuliginea
  pest or weed control at 100 g/ha: 95%
Venturia inaequalis
  pest or weed control at 100 g/ha: 100%

## O=C(Nc1ccccc1-c1ccc(F)c(Cl)c1)c1ccccc1C(F)(F)F [Compound 35, N-(3′-chloro-4′-fluoro-1,1′-biphenyl-2-yl)-2-(trifluoromethyl)benzamide]
[1]
  chromatographic logP: 3.81
Podosphaera leucotricha
  pest or weed control at 100 g/ha: 100%
Sphaerotheca fuliginea
  pest or weed control at 100 g/ha: 93%
Venturia inaequalis
  pest or weed control at 100 g/ha: 100%

## O=C(Nc1ccccc1-c1ccc(F)cc1F)c1ccccc1C(F)(F)F [Compound 36]
[1]
  logP (pH 2.3): 3.41

## O=C(Nc1ccccc1-c1ccc(OC(F)(F)F)c(F)c1)c1ccccc1C(F)(F)F [Compound 37]
[1]
  logP (pH 2.3): 4.08

## O=C(Nc1ccccc1-c1ccc(Cl)c(C(F)(F)F)c1)c1ccccc1C(F)(F)F [Compound 38]
[1]
  logP (pH 2.3): 4.18

## Cc1ccc(-c2ccccc2NC(=O)c2ccccc2C(F)(F)F)cc1C(F)(F)F [Compound 39]
[1]
  logP (pH 2.3): 4.18

## O=C(Nc1ccccc1-c1ccc(OC(F)(F)F)c(C(F)(F)F)c1)c1ccccc1C(F)(F)F [Compound 40]
[1]
  logP (pH 2.3): 4.41

## O=C(Nc1ccccc1-c1ccc(F)c(C(F)(F)F)c1)c1ccccc1C(F)(F)F [Compound 41]
[1]
  chromatographic logP: 3.9
Podosphaera leucotricha
  pest or weed control at 100 g/ha: 94%
Sphaerotheca fuliginea
  pest or weed control at 100 g/ha: 100%

## Cc1cc(-c2ccccc2NC(=O)c2ccccc2C(F)(F)F)ccc1Cl [Compound 42, N-(4′-chloro-3′-methyl-1,1′-biphenyl-2-yl)-2-(trifluoromethyl)benzamide]
[1]
  chromatographic logP: 4.18
Podosphaera leucotricha
  pest or weed control at 100 g/ha: 100%
Sphaerotheca fuliginea
  pest or weed control at 100 g/ha: 100%
Venturia inaequalis
  pest or weed control at 100 g/ha: 100%

## O=C(Nc1ccccc1-c1cc(Cl)cc(Cl)c1)c1ccccc1C(F)(F)F [Compound 43]
[1]
  logP (pH 2.3): 4.16

## O=C(Nc1ccccc1-c1ccc(Cl)c(Cl)c1)c1ccccc1I [Compound 44]
[1]
  logP (pH 2.3): 4.06

## O=C(Nc1ccccc1-c1ccc(Cl)cc1F)c1ccccc1C(F)(F)F [Compound 45]
[1]
  logP (pH 2.3): 3.68

## O=C(Nc1ccccc1-c1ccc(Cl)cc1)c1ccccc1I [Compound 46]
[1]
  logP (pH 2.3): 3.74

## O=C(Nc1ccc(F)cc1-c1ccc(Cl)c(Cl)c1)c1ccccc1C(F)(F)F [Compound 47]
[1]
  logP (pH 2.3): 4.11

## O=C(Nc1c(F)cccc1-c1ccc(Cl)c(Cl)c1)c1ccccc1C(F)(F)F [Compound 48]
[1]
  logP (pH 2.3): 3.81

## O=C(Nc1ccccc1-c1ccc(Cl)cc1)c1ccccc1Cl [Compound 49]
[1]
  logP (pH 2.3): 3.64

## O=C(Nc1ccccc1-c1ccc(Cl)cc1)c1ccccc1Br [Compound 50]
[1]
  logP (pH 2.3): 3.66

## O=C(Nc1ccccc1Br)c1ccccc1C(F)(F)F [IV-1, N-(2-bromophenyl)-2-(trifluoro-methyl)benzamide]
[1]
  chromatographic logP: 2.99
